Assay results reported in the supplement of paper PMC10307832.

How the values were obtained:
Assay in all cases: relative viability (nuclei count vs DMSO), 5 days (fraction); higher = more cells survive
NCI-H358 = system: NCI-H358
Procedure, shortened: (§1)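 Lung cancer cell lines in 1536-well plates were dosed by pin tool the day after seeding, either with one drug alone or with a fixed anchor-drug dose plus five library-drug doses (not always all listed) in √10 steps. After 5 days, cells were fixed and their nuclei stained in one step (final 0.05% Triton X-100, 1% formaldehyde, 1 ug/ml Hoechst), then counted on 4× images. Relative viability is the nuclei count in treated wells divided by that in vehicle wells. Values are medians of duplicate plates.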

HCC-44 = system: HCC-44
Procedure, shortened: as §1

NCI-H650 = system: NCI-H650
Procedure, shortened: as §1

NCI-H596 = system: NCI-H596
Procedure, shortened: as §1

NCI-H23 = system: NCI-H23
Procedure, shortened: as §1

A-427 = system: A-427
Procedure, shortened: as §1

COR-L23 = system: COR-L23
Procedure, shortened: as §1

NCI-H1792 = system: NCI-H1792
Procedure, shortened: as §1

NCI-H1437 = system: NCI-H1437
Procedure, shortened: as §1

201T = system: 201T
Procedure, shortened: as §1

NCI-H1650 = system: NCI-H1650
Procedure, shortened: as §1

SK-MES-1 = system: SK-MES-1
Procedure, shortened: as §1

NCI-H1975 = system: NCI-H1975
Procedure, shortened: as §1

HCC-827 = system: HCC-827
Procedure, shortened: as §1

BEN = system: BEN
Procedure, shortened: as §1

NCI-H441 = system: NCI-H441
Procedure, shortened: as §1

EKVX = system: EKVX
Procedure, shortened: as §1

HARA = system: HARA
Procedure, shortened: as §1

HCC-15 = system: HCC-15
Procedure, shortened: as §1

NCI-H838 = system: NCI-H838
Procedure, shortened: as §1

Structure (SMILES): CC(=O)O[C@@]12CO[C@@H]1C[C@H](O)[C@@]1(C)C(=O)[C@H](O)C3=C(C)[C@@H](OC(=O)[C@H](O)[C@@H](NC(=O)OC(C)(C)C)c4ccccc4)C[C@@](O)([C@@H](OC(=O)c4ccccc4)[C@H]21)C3(C)C [Docetaxel] + C[C@@H](Oc1cc(-c2cnn(C3CCNCC3)c2)cnc1N)c1c(Cl)ccc(F)c1Cl [Crizotinib] (partner 1 µM)
- relative viability (NCI-H358; first compound 0.0002 µM): 0.383
- relative viability (NCI-H358; first compound 0.000632 µM): 0.342
- relative viability (NCI-H358; first compound 0.002 µM): 0.16
- relative viability (NCI-H358; first compound 0.02 µM): 0.116
- relative viability (HCC-44; first compound 0.0002 µM): 0.805
- relative viability (HCC-44; first compound 0.000632 µM): 0.536
- relative viability (HCC-44; first compound 0.002 µM): 0.483
- relative viability (HCC-44; first compound 0.006325 µM): 0.195
- relative viability (HCC-44; first compound 0.02 µM): 0.12
- relative viability (NCI-H650; first compound 0.0002 µM): 0.504
- relative viability (NCI-H650; first compound 0.000632 µM): 0.356
- relative viability (NCI-H650; first compound 0.002 µM): 0.253
- relative viability (NCI-H650; first compound 0.006325 µM): 0.208
- relative viability (NCI-H650; first compound 0.02 µM): 0.204
- relative viability (NCI-H596; first compound 0.0002 µM): 0.986
- relative viability (NCI-H596; first compound 0.000632 µM): 0.798
- relative viability (NCI-H596; first compound 0.002 µM): 1.01
- relative viability (NCI-H596; first compound 0.006325 µM): 0.475
- relative viability (NCI-H596; first compound 0.02 µM): 0.462
- relative viability (NCI-H23; first compound 0.0002 µM): 0.534
- relative viability (NCI-H23; first compound 0.000632 µM): 0.412
- relative viability (NCI-H23; first compound 0.002 µM): 0.271
- relative viability (NCI-H23; first compound 0.006325 µM): 0.189
- relative viability (NCI-H23; first compound 0.02 µM): 0.113
- relative viability (A-427; first compound 0.0002 µM): 0.998
- relative viability (A-427; first compound 0.000632 µM): 0.859
- relative viability (A-427; first compound 0.002 µM): 0.506
- relative viability (A-427; first compound 0.006325 µM): 0.221
- relative viability (A-427; first compound 0.02 µM): 0.167
- relative viability (COR-L23; first compound 0.0002 µM): 0.536
- relative viability (COR-L23; first compound 0.000632 µM): 0.483
- relative viability (COR-L23; first compound 0.002 µM): 0.111
- relative viability (COR-L23; first compound 0.006325 µM): 0.132
- relative viability (COR-L23; first compound 0.02 µM): 0.0806
- relative viability (NCI-H1792; first compound 0.0002 µM): 0.929
- relative viability (NCI-H1792; first compound 0.000632 µM): 0.905
- relative viability (NCI-H1792; first compound 0.002 µM): 0.646
- relative viability (NCI-H1792; first compound 0.02 µM): 0.115
- relative viability (NCI-H1437; first compound 0.0002 µM): 0.901
- relative viability (NCI-H1437; first compound 0.000632 µM): 0.878
- relative viability (NCI-H1437; first compound 0.002 µM): 0.197
- relative viability (NCI-H1437; first compound 0.006325 µM): 0.113
- relative viability (NCI-H1437; first compound 0.02 µM): 0.11
- relative viability (201T; first compound 0.0002 µM): 0.983
- relative viability (201T; first compound 0.000632 µM): 1.03
- relative viability (201T; first compound 0.002 µM): 0.908
- relative viability (201T; first compound 0.006325 µM): 0.646
- relative viability (201T; first compound 0.02 µM): 0.5
- relative viability (NCI-H1650; first compound 0.0002 µM): 0.906
- relative viability (NCI-H1650; first compound 0.000632 µM): 0.398
- relative viability (NCI-H1650; first compound 0.002 µM): 0.206
- relative viability (NCI-H1650; first compound 0.006325 µM): 0.185
- relative viability (NCI-H1650; first compound 0.02 µM): 0.141
- relative viability (SK-MES-1; first compound 0.0002 µM): 0.937
- relative viability (SK-MES-1; first compound 0.000632 µM): 0.845
- relative viability (SK-MES-1; first compound 0.002 µM): 0.287
- relative viability (SK-MES-1; first compound 0.006325 µM): 0.221
- relative viability (SK-MES-1; first compound 0.02 µM): 0.177
- relative viability (NCI-H1975; first compound 0.0002 µM): 0.861
- relative viability (NCI-H1975; first compound 0.000632 µM): 0.483
- relative viability (NCI-H1975; first compound 0.002 µM): 0.23
- relative viability (NCI-H1975; first compound 0.006325 µM): 0.192
- relative viability (NCI-H1975; first compound 0.02 µM): 0.142
- relative viability (HCC-827; first compound 0.0002 µM): 0.943
- relative viability (HCC-827; first compound 0.000632 µM): 0.91
- relative viability (HCC-827; first compound 0.002 µM): 0.68
- relative viability (HCC-827; first compound 0.006325 µM): 0.416
- relative viability (HCC-827; first compound 0.02 µM): 0.342
- relative viability (BEN; first compound 0.0002 µM): 0.859
- relative viability (BEN; first compound 0.000632 µM): 0.809
- relative viability (BEN; first compound 0.002 µM): 0.42
- relative viability (BEN; first compound 0.006325 µM): 0.222
- relative viability (NCI-H441; first compound 0.0002 µM): 0.802
- relative viability (NCI-H441; first compound 0.000632 µM): 0.472
- relative viability (NCI-H441; first compound 0.002 µM): 0.29
- relative viability (NCI-H441; first compound 0.006325 µM): 0.193
- relative viability (NCI-H441; first compound 0.02 µM): 0.181
- relative viability (EKVX; first compound 0.0002 µM): 0.725
- relative viability (EKVX; first compound 0.000632 µM): 0.885
- relative viability (EKVX; first compound 0.002 µM): 0.432
- relative viability (EKVX; first compound 0.006325 µM): 0.25
- relative viability (EKVX; first compound 0.02 µM): 0.145
- relative viability (HARA; first compound 0.0002 µM): 0.903
- relative viability (HARA; first compound 0.000632 µM): 0.364
- relative viability (HARA; first compound 0.002 µM): 0.312
- relative viability (HARA; first compound 0.006325 µM): 0.0907
- relative viability (HARA; first compound 0.02 µM): 0.104
- relative viability (HCC-15; first compound 0.0002 µM): 0.818
- relative viability (HCC-15; first compound 0.000632 µM): 0.452
- relative viability (HCC-15; first compound 0.002 µM): 0.172
- relative viability (HCC-15; first compound 0.006325 µM): 0.207
- relative viability (HCC-15; first compound 0.02 µM): 0.14
- relative viability (NCI-H838; first compound 0.0002 µM): 0.856
- relative viability (NCI-H838; first compound 0.000632 µM): 0.7
- relative viability (NCI-H838; first compound 0.002 µM): 0.155
- relative viability (NCI-H838; first compound 0.006325 µM): 0.201
- relative viability (NCI-H838; first compound 0.02 µM): 0.124
